Key:
[1] = tested on: HCT-116 colon cancer cells; assay: Apoptosis by FACS analysis of propidium iodide-stained cells; type: cell-based, human; details: HCT-116, 40 μM, 24 hours
Protocol: (§1) Apoptosis was determined by FACS analysis of propidium iodide (PI)-stained cells. In brief, cells were trypsinized, washed with cold phosphate-buffered saline (PBS), fixed in ice-cold 70% ethanol for 1 hour, and then resuspended in 2 mL PBS supplemented with 10 μL RNase (100 mg/ml) and incubated at 37° C. for 30 min. After incubation, DNA was stained with 1 mg/mL PI in PBS. Cell staining was analyzed using a Cell Lab Quanta™ SC flow cytometer (Beckman Coulter, Danvers, Mass.) and data were processed using FCS Express software (DeNovo Software, Los Angeles, Calif.). The percentage of apoptotic cells in each sample was determined based on the sub G0 peaks detected in monoparametric histograms.

HT-29 colon cancer cells = assay: as above; type: cell-based, human; details: HT-29, 40 μM, 24 hours
Protocol: as §1

H-1299 cells = assay: TUNEL apoptosis assay (Part 2); type: cell-based, human; details: H-1299, 20 or 40 μM, 24 hours
[2] = tested on: human colon fibroblast cells CCD-18Co; assay: in vitro; type: cell-based
Protocol: Growth inhibition of human cancer and normal cells. Cell growth inhibition was determined by a MTT colorimetric assay. Human colon cancer cells HCT-116, human lung cancer cells H-1299, human colon fibroblast cells CCD-18Co, and human lung fibroblast cells IMR-90 were plated in 96-well microtiter plates with 3000 cells/well and allowed to attach for 24 h at 37° C. […] After the cells were cultured for 48 h, the medium was aspirated and cells were treated with 200 μL fresh medium containing 2.41 mmol/L MTT. […] The reading reflected the number of viable cells and was expressed as a percentage of viable cells in the control. Both HCT-116 and H-1299 cells were cultured in McCoy's 5A medium. CCD-18Co and IMR-90 cells were cultured in Eagle's modified essential medium (EMEM). All of the above media were supplemented with 10% fetal bovine serum, 1% penicillin/streptomycin, and 1% glutamine, and the cells were kept in a 37° C. incubator with 95% humidity and 5% CO2.

[3] = tested on: human colon cancer cells HCT-116; assay: MTT growth inhibition by M14 and M15 (Part 3); type: cell-based; details: HCT-116, 24 hours, 0 to 80 μM; read-out: IC50 (cell viability, MTT)
Protocol: (§2) Cell growth inhibition was determined by a MTT colorimetric assay. […] The reading reflected the number of viable cells and was expressed as a percentage of viable cells in the control. Both HCT-116 and H-1299 cells were cultured in McCoy's 5A medium. All of the above media were supplemented with 10% fetal bovine serum, 1% penicillin/streptomycin, and 1% glutamine, and the cells were kept in a 37° C. incubator with 95% humidity and 5% CO2.

[4] = tested on: human lung cancer cells H-1299; assay: MTT growth inhibition by M14 and M15 (Part 3); type: cell-based; details: H-1299, 24 hours, 0 to 80 μM; read-out: IC50 (cell viability, MTT)
Protocol: as §2

[5] = tested on: HCT-116, HT-29, H-1299, and CL-13 cancer cell lines; assay: Metabolism of [6]-shogaol in cancer cells; type: in vitro ADME; details: 10 μM, HCT-116, HT-29, H-1299, CL-13, up to 24 h
Protocol: Cells (1.0×10^6) were plated in six-well culture plates and were allowed to attach for 24 h at 37° C. in 5% CO2 incubator. [6]-Shogaol [in dimethyl sulfoxide (DMSO)] was added to McCoy's 5A medium (containing 10% fetal bovine serum, 1% penicillin/streptomycin, and 1% glutamine) to reach a final concentration of (10 μM) and was incubated with different cancer cell lines (HCT-116, HT-29, H-1299, and CL-13). At different time points (0, 30 min, 1, 2, 4, 6, 8, and 24 h), 190-μl samples of supernatant were taken and transferred to vials containing (10 μl) of 0.2% ascorbic acid to stabilize [6]-shogaol and its metabolites. The metabolites were extracted from media by addition of equal volume of acetonitrile and centrifugation, in which the supernatant was harvested. The samples were then diluted 5-fold in acetonitrile and were analyzed by HPLC ECD.

[6] = Kinetic study of [6]-shogaol metabolism to M6 in liver microsomes; details: human liver microsomes 0.1 mg/mL, 30 min, [6]-shogaol 7.8 to 2000 μM
Protocol: To estimate kinetic parameters of metabolism of [6]-shogoal to major product M6 in liver microsomes from human and other species, the incubation conditions were optimized to ensure that formation rate of M6 was in the linear range in relation to incubation time and protein concentration. [6]-Shogaol (7.81, 15.63, 31.25, 62.5, 125, 250, 500, 1000, and 2000 μM) was incubated with liver microsomes from mouse (MLM), rat (RLM), dog (DLM), monkey (CyLM), and human (HLM) (0.1 mg/mL each, respectively) for 30 minutes. All incubations were performed in triplicate. The apparent Km and Vmax values were calculated from analysis of experimental data according to the Michaelis-Menten equation, and the results were graphically represented (for HLM) by an Eadie-Hofstee plot. Kinetic constants were reported as the value+/−S.E. of the parameter estimate.

| Compound | apoptotic cells (FACS, PI) [1] | apoptotic cells (FACS, PI) (HT-29 colon cancer cells) | induction of apoptosis (TUNEL) versus DMSO (H-1299 cells) | IC50 [2] | IC50 [3] | IC50 [4] | metabolism in cancer cell lines [5] | Vmax of M6 formation [6] | Km ([6]; read-out: Km of M6 formation) |
| --- | --- | --- | --- | --- | --- | --- | --- | --- | --- |
| CCCCCC(CC(=O)CCc1ccc(O)c(OC)c1)SC[C@H](N)C(=O)O (stereo partly shown) [M2, 5-cysteinyl-[6]-shogaol] | 26.34% | 14.38% | Apoptosis was observed | 99.2 µM | – | – | – | – | – |
| CCCCC/C=C/C(=O)CCc1ccc(O)c(OC)c1 [[6]-shogaol, reference compound] | – | – | – | 43.9 µM | 19.9 µM | 17.3 µM | extensively metabolized | 10.82+/−0.47 nanomoles per minute per milli | 45.6 µM |

— patent US9549911B2, “Ginger metabolites and uses thereof” (North Carolina A&T State University, priority 2012, dated 2017)
